We go through 1 compound from US12290500B2, “Anaplerotic agents for treatment of disorders of propionate and long chain fat metabolism” (University of Pittsburgh—Of the Commonwealth System of …, priority 2016, dated 2025).

This assay has as its system PCC deficient cells. The procedure:
Control cells and PCC cells obtained from patients with PA and generated through CRISPR/CAS9 technology are grown in media with and without succinate supplementation and the metabolite profile of cell extracts is determined by metabolomic techniques. First, PCC deficient cells are grown in T-25 flasks in standard DMEM medium with and without supplemental succinate (0.1-2 mmol/L). Cells are harvested, lysed by sonication and intracellular concentrations of TCA cycle intermediates are measured by liquid chromatography-mass spectrometry (LC-MS)/MS. Next, flux through the TCA cycle is measured by incorporation of radiolabel from uniformly labeled ^14C-palmitate into TCA cycle intermediates after incubation with PPC deficient and control cells. PCC deficient cell lines are grown in DMEM complete media and transferred to 6-well plates at a seeding density of ˜200,000 cells/well. The media in the wells is changed after 24 hours to DMEM media containing 5% dialyzed fetal bovine serum (FBS). After approximately one hour, the first time point (180 minutes) receives DMEM 5% dialyzed FBS containing universally labeled palmitate with ^13C […]. The cells are incubated at 37° C., 4% CO2 for the following time points: 180 minutes, 60 minutes, 30 minutes, 10 minutes and 0 minutes. The 0 minute time point receives no isotopic labeling.

SMILES strings stand for the structures.

`O=C(O)CCC(=O)O` [succinate]: the “decreased level of TCA cycle intermediates” value (cell lines from patients with PA or MMA, succinate supplementation 0.1-2 mmol/L) was “expected to be reversed”. Further, the “impaired incorporation of label from palmitate through the TCA cycle into protein” value (succinate supplementation) is on record as “expected to be reversed”.
